Test results as given in patent US8217141B2, “Crystalline and amorphous forms of peptide” (Neopro Labs, LLC, priority 2007, dated 2012).
Where a SMILES comes first, the peptide text is derived from it.

Legend:
[1] = Approximate solubility, solvent addition method; format: physicochemical; conditions: ambient temperature
Experimental: A weighed sample of SEQ ID NO:1 (a polypeptide of amino acids F-L-P—S) was treated with aliquots of the test solvent at ambient temperature. Complete dissolution of the test material was determined by visual inspection. Solubility was estimated based on the total solvent used to provide complete dissolution. The actual solubility may be greater than the value calculated because of the use of solvent aliquots that were too large or due to a slow rate of dissolution. […] If complete dissolution was achieved as a result of only one aliquot addition, the solubility is expressed as “greater than”.

[2] = Dynamic vapor sorption/desorption (DVS); format: physicochemical; conditions: for weight gain, adsorption: 5%-95% RH; for weight loss, desorption: 95%-5% RH
Experimental: Moisture sorption/desorption data were collected on a VTI SGA-100 Vapor Sorption Analyzer. Sorption and desorption data were collected over a range of 5% to 95% relative humidity (RH) at 10% RH intervals under a nitrogen purge. Samples were not dried prior to analysis. Equilibrium criteria used for analysis were less than 0.0100% weight change in 5 minutes, with a maximum equilibration time of 3 hours if the weight criterion was not met. Data were not corrected for the initial moisture content of the samples. Sodium chloride and polyvinypyrrolidine were used as calibration standards.

SMILES: CC(C)CC(NC(=O)C(N)Cc1ccccc1)C(=O)N1CCCC1C(=O)NC(CO)C(=O)O (centres unmarked) [SEQ ID NO: 1] (H-FLPS-OH; configuration not given here)
- solubility ([1]; 1-Butanol): ≥ 43 mg/mL
- solubility ([1]; 2-Butanone): ≥ 20 mg/mL
- solubility ([1]; 2-Propanol): ≥ 20 mg/mL
- solubility ([1]; Acetone): ≥ 40 mg/mL
- solubility ([1]; Acetonitrile (ACN)): ≥ 19 mg/mL
- solubility ([1]; Chloroform): ≤ 1.9 mg/mL
- solubility ([1]; Dichloromethane (DCM)): ≥ 20 mg/mL
- solubility ([1]; Ethanol (EtOH)): ≥ 52 mg/mL
- solubility ([1]; Ethyl acetate (EtOAc)): ≥ 20 mg/mL
- solubility ([1]; Heptane): ≤ 2 mg/mL
- solubility ([1]; Isopropyl ether): ≤ 2.7 mg/mL
- solubility ([1]; Methanol (MeOH)): ≥ 50 mg/mL
- solubility ([1]; Pentane): ≤ 2 mg/mL
- solubility ([1]; Tetrahydrofuran (THF)): ≥ 44 mg/mL
- solubility ([1]; Toluene): ≤ 3.6 mg/mL
- solubility ([1]; Water, visual inspection): ≥ 60 mg/mL
- weight gain, adsorption [2]: 5%-95% RH; 25.0 w % (gain),
- weight gain, adsorption ([2]; listed as SEQ ID NO:1): 25.0 w %
- weight loss, desorption [2]: 95%-5% RH; 28.2 w % (loss)
- weight loss, desorption ([2]; listed as SEQ ID NO:1): 28.2 w %
- final weight loss after the desorption step ([2]; at ~5% RH, relative to original weight): 4.4%
- initial weight loss ([2]; on equilibration at ~5% RH, as received material): 1.3%
- weight gain on the sorption step ([2]; up to ~95% RH, relative to original weight): approximately 23.7%
